Test results as given in US9833497B2, “Human originated EGF domain proteins and use of the same” (CHENGDU SOURCEBIO LIMITED-LIABILITY COMPANY, priority 2013, dated 2017).

How the values were obtained:
Assay type in all cases: cell-based
Citrobacter diversus = test: MIC against Gram-negative bacteria: Citrobacter diversus; conditions: 5×10^5 CFU/mL; for MIC against C. diversus: Citrobacter diversus
How it was run: (§1)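 Bacteria grown in LB at 37° C to McFarland 0.5, resuspended and seeded at 5×10^5 CFU/mL in 96-well plates. Purified human EGF-domain proteins two-fold serially diluted, triplicate wells; cultured at 37° C, shaking 175 rpm. MIC = lowest protein concentration with no growth.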

Enterobacter cloacae = test: MIC against Gram-negative bacteria: Enterobacter cloacae; conditions: 5×10^5 CFU/mL; for MIC against E. cloacae: Enterobacter cloacae
How it was run: as §1

Pseudomonas aeruginosa = test: MIC against Gram-negative bacteria: Pseudomonas aeruginosa; conditions: 5×10^5 CFU/mL; for MIC against P. aeruginosa: Pseudomonas aeruginosa
How it was run: as §1

Proteus mirabilis = test: MIC against Gram-negative bacteria: Proteus mirabilis; conditions: 5×10^5 CFU/mL; for MIC against P. mirabilis: Proteus mirabilis
How it was run: as §1

E. coli DH5α = test: Antibacterial activity: MIC and growth curve against E. coli DH5α in 96-well plate; conditions: minimal inhibitory concentration against E. coli DH5α; 96-well plate, 5×10^5 CFU/mL, 37° C., judged after 8 h
How it was run: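 MIC taken as lowest protein level with no bacterial growth, tracked by A600 every 30 min during 37 °C, 175 rpm culture. Two-fold protein series 50-12.5 μg/mL final, triplicate wells, against 5×10^5 CFU/mL of LB-washed mid-log cells.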

Moraxella catarrhalis = test: MIC against Gram-negative bacteria: Moraxella catarrhalis; conditions: 5×10^5 CFU/mL; for MIC against M. catarrhalis: Moraxella catarrhalis
How it was run: as §1

E. coli BL21 = test: MIC against Gram-negative bacteria: E. coli BL21; conditions: 5×10^5 CFU/mL
How it was run: as §1

Proteus vulgaris = test: MIC against Gram-negative bacteria: Proteus vulgaris; conditions: 5×10^5 CFU/mL; for MIC against P. vulgaris: Proteus vulgaris
How it was run: as §1

Klebsiella pneumonia = test: MIC against Gram-negative bacteria: Klebsiella pneumonia; conditions: 5×10^5 CFU/mL; for MIC against K. pneumonia: Klebsiella pneumonia
How it was run: as §1

Aeromonas hydrophila = test: MIC against Gram-negative bacteria: Aeromonas hydrophila; conditions: 5×10^5 CFU/mL; for MIC against A. hydrophila: Aeromonas hydrophila
How it was run: as §1

Serratia marcescens = test: MIC against Gram-negative bacteria: Serratia marcescens; conditions: 5×10^5 CFU/mL; for MIC against S. marcescens: Serratia marcescens
How it was run: as §1

[1] = 10 h cultivation at 37° C., two-fold serial dilution

For “PRT747 (DIDECKDPDACSQICVNYKGYFKCECYPGYEMDLLTKNCK; listed as Homo sapiens)”, the “MIC (μg/mL) C. diversus” value (Citrobacter diversus; 10 h cultivation at 37° C.) was 50 µg/mL, the “MIC (μg/mL) E. cloacae” value (Enterobacter cloacae; 10 h cultivation at 37° C.) was 12.5 µg/mL and the “MIC (μg/mL) P. aeruginosa” value (Pseudomonas aeruginosa; 10 h cultivation at 37° C.) was 12.5 µg/mL. The “MIC (μg/mL) P. mirabilis” value (Proteus mirabilis; 10 h cultivation at 37° C.) was 50 µg/mL, the MIC (E. coli DH5α) was 50 µg/mL and the “MIC (μg/mL) M. catarrhalis” value (Moraxella catarrhalis; 10 h cultivation at 37° C.) was 12.5 µg/mL. For the same substance, the “MIC (μg/mL) E. coli BL21” value (E. coli BL21; 10 h cultivation at 37° C.) was 50 µg/mL, the “MIC (μg/mL) P. vulgaris” value (Proteus vulgaris; 10 h cultivation at 37° C.) was 25 µg/mL and the “MIC (μg/mL) K. pneumonia” value (Klebsiella pneumonia; 10 h cultivation at 37° C.) was 12.5 µg/mL. The “MIC (μg/mL) A. hydrophila” value (Aeromonas hydrophila; 10 h cultivation at 37° C.) was 12.5 µg/mL and the “MIC (μg/mL) S. marcescens” value (Serratia marcescens; 10 h cultivation at 37° C.) was 12.5 µg/mL.
With “PRT851 (DELDCGPSNCSQHGLCTETGCRCDAGWTGSNCS; listed as Homo sapiens)” the “MIC (μg/mL) C. diversus” value (Citrobacter diversus; 10 h cultivation at 37° C.) was 12.5 µg/mL, the “MIC (μg/mL) E. cloacae” value (Enterobacter cloacae; 10 h cultivation at 37° C.) was 12.5 µg/mL and the “MIC (μg/mL) P. aeruginosa” value (Pseudomonas aeruginosa; 10 h cultivation at 37° C.) was 25 µg/mL. For the same substance, the “MIC (μg/mL) P. mirabilis” value (Proteus mirabilis; 10 h cultivation at 37° C.) was 25 µg/mL, the MIC (E. coli DH5α) was 25 µg/mL and the “MIC (μg/mL) M. catarrhalis” value (Moraxella catarrhalis; 10 h cultivation at 37° C.) was 12.5 µg/mL. For the same substance, the “MIC (μg/mL) E. coli BL21” value (E. coli BL21; 10 h cultivation at 37° C.) was 12.5 µg/mL, the “MIC (μg/mL) P. vulgaris” value (Proteus vulgaris; 10 h cultivation at 37° C.) was 12.5 µg/mL and the “MIC (μg/mL) K. pneumonia” value (Klebsiella pneumonia; 10 h cultivation at 37° C.) was 12.5 µg/mL. The “MIC (μg/mL) A. hydrophila” value (Aeromonas hydrophila; 10 h cultivation at 37° C.) was 12.5 µg/mL and the “MIC (μg/mL) S. marcescens” value (Serratia marcescens; 10 h cultivation at 37° C.) was 25 µg/mL.
In the case of “PRT1196 (DVDLCEPSPCRNGARCYNLEGDYYCACPDDFGGKNCS; listed as Homo sapiens)”, the “MIC against C. diversus” value (Citrobacter diversus; 96-well plate, 37° C., 10 h) is reported as 50 µg/mL, the “MIC against E. cloacae” value (Enterobacter cloacae; 96-well plate, 37° C., 10 h) is reported as 25 µg/mL and the “MIC against P. aeruginosa” value (Pseudomonas aeruginosa; 96-well plate, 37° C., 10 h) is reported as 12.5 µg/mL. For the same substance, the “MIC against P. mirabilis” value (Proteus mirabilis; 96-well plate, 37° C., 10 h) was 12.5 µg/mL, the MIC (E. coli DH5α) was 12.5 µg/mL and the “MIC against M. catarrhalis” value (Moraxella catarrhalis; 96-well plate, 37° C., 10 h) was 25 µg/mL. For the same substance, the “MIC against E. coli BL21” value (E. coli BL21; 96-well plate, 37° C., 10 h) was 50 µg/mL, the “MIC against P. vulgaris” value (Proteus vulgaris; 96-well plate, 37° C., 10 h) was 25 µg/mL and the “MIC against K. pneumonia” value (Klebsiella pneumonia; 96-well plate, 37° C., 10 h) was 25 µg/mL. The “MIC against A. hydrophila” value (Aeromonas hydrophila; 96-well plate, 37° C., 10 h) was 25 µg/mL and the “MIC against S. marcescens” value (Serratia marcescens; 96-well plate, 37° C., 10 h) was 50 µg/mL.
In the case of “PRT1398 (EVDCLDPTCSSHGVCVNGECLCSPGWGGLNCEL; listed as Homo sapiens)”, the “MIC against C. diversus” value (Citrobacter diversus; 10 h cultivation at 37° C.) is reported as 12.5 µg/mL, the “MIC against E. cloacae” value (Enterobacter cloacae; 10 h cultivation at 37° C.) is reported as 50 µg/mL and the “MIC against P. aeruginosa” value (Pseudomonas aeruginosa; 10 h cultivation at 37° C.) is reported as 12.5 µg/mL. For the same substance, the “MIC against P. mirabilis” value (Proteus mirabilis; 10 h cultivation at 37° C.) was 12.5 µg/mL, the MIC (E. coli DH5α) was 25 µg/mL and the “MIC against M. catarrhalis” value (Moraxella catarrhalis; 10 h cultivation at 37° C.) was 25 µg/mL. For the same substance, the “MIC against E. coli BL21” value (E. coli BL21; 10 h cultivation at 37° C.) was 25 µg/mL, the “MIC against P. vulgaris” value (Proteus vulgaris; 10 h cultivation at 37° C.) was 25 µg/mL and the “MIC against K. pneumonia” value (Klebsiella pneumonia; 10 h cultivation at 37° C.) was 25 µg/mL. For the same substance, the “MIC against A. hydrophila” value (Aeromonas hydrophila; 10 h cultivation at 37° C.) was 25 µg/mL and the “MIC against S. marcescens” value (Serratia marcescens; 10 h cultivation at 37° C.) was 12.5 µg/mL.
In the case of “PRT1114 (PSKECSLNVTCLDGSPCEGGSPAANCSCLEGLAGQRCQ; listed as Homo sapiens)”, the “MIC C. diversus” value (Citrobacter diversus; [1]) is reported as 12.5 µg/mL, the “MIC E. cloacae” value (Enterobacter cloacae; [1]) is reported as 25 µg/mL and the “MIC P. aeruginosa” value (Pseudomonas aeruginosa; [1]) is reported as 25 µg/mL. For the same substance, the “MIC P. mirabilis” value (Proteus mirabilis; [1]) was 50 µg/mL, the MIC (E. coli DH5α) was 25 µg/mL and the “MIC M. catarrhalis” value (Moraxella catarrhalis; [1]) was 25 µg/mL. The “MIC E. coli BL21” value (E. coli BL21; [1]) was 12.5 µg/mL, the “MIC P. vulgaris” value (Proteus vulgaris; [1]) was 25 µg/mL and the “MIC K. pneumonia” value (Klebsiella pneumonia; [1]) was 50 µg/mL. For the same substance, the “MIC A. hydrophila” value (Aeromonas hydrophila; [1]) was 25 µg/mL and the “MIC S. marcescens” value (Serratia marcescens; [1]) was 12.5 µg/mL.
With “PRT694 (DVDECRRVPPPCAPGRCENSPGSFRCVCGPGFRAGPRAAECL; listed as Homo sapiens)” the “MIC C. diversus” value (Citrobacter diversus; 96-well plate, 37° C., 10 h) was 12.5 µg/mL, the “MIC E. cloacae” value (Enterobacter cloacae; 96-well plate, 37° C., 10 h) was 50 µg/mL and the “MIC P. aeruginosa” value (Pseudomonas aeruginosa; 96-well plate, 37° C., 10 h) was 50 µg/mL. For the same substance, the “MIC P. mirabilis” value (Proteus mirabilis; 96-well plate, 37° C., 10 h) was 50 µg/mL, the MIC (E. coli DH5α) was 50 µg/mL and the “MIC M. catarrhalis” value (Moraxella catarrhalis; 96-well plate, 37° C., 10 h) was 25 µg/mL. For the same substance, the “MIC E. coli BL21” value (E. coli BL21; 96-well plate, 37° C., 10 h) was 25 µg/mL, the “MIC P. vulgaris” value (Proteus vulgaris; 96-well plate, 37° C., 10 h) was 12.5 µg/mL and the “MIC K. pneumonia” value (Klebsiella pneumonia; 96-well plate, 37° C., 10 h) was 25 µg/mL. For the same substance, the “MIC A. hydrophila” value (Aeromonas hydrophila; 96-well plate, 37° C., 10 h) was 25 µg/mL and the “MIC S. marcescens” value (Serratia marcescens; 96-well plate, 37° C., 10 h) was 50 µg/mL.
For “PRT1356 (KEQRCPSDCHGQGRCVDGQCICHEGFTGLDCG; listed as Homo sapiens)”, the “MIC against C. diversus” value (Citrobacter diversus; 10 h cultivation at 37° C.) was 12.5 µg/mL, the “MIC against E. cloacae” value (Enterobacter cloacae; 10 h cultivation at 37° C.) was 25 µg/mL and the “MIC against P. aeruginosa” value (Pseudomonas aeruginosa; 10 h cultivation at 37° C.) was 12.5 µg/mL. The “MIC against P. mirabilis” value (Proteus mirabilis; 10 h cultivation at 37° C.) was 50 µg/mL, the MIC (E. coli DH5α) was 12.5 µg/mL and the “MIC against M. catarrhalis” value (Moraxella catarrhalis; 10 h cultivation at 37° C.) was 25 µg/mL. For the same substance, the “MIC against E. coli BL21” value (E. coli BL21; 10 h cultivation at 37° C.) was 50 µg/mL, the “MIC against P. vulgaris” value (Proteus vulgaris; 10 h cultivation at 37° C.) was 25 µg/mL and the “MIC against K. pneumonia” value (Klebsiella pneumonia; 10 h cultivation at 37° C.) was 50 µg/mL. For the same substance, the “MIC against A. hydrophila” value (Aeromonas hydrophila; 10 h cultivation at 37° C.) was 25 µg/mL and the “MIC against S. marcescens” value (Serratia marcescens; 10 h cultivation at 37° C.) was 12.5 µg/mL.
